# Measured values from patent US20090221024A1, “T CELL ASSAYS” (ANTITOPE LIMITED, priority 2006, published 2009).
# Legend:
# [1] = system: CD8^+ CD25^hi T cell depleted PBMC; test: Timecourse T cell proliferation assay, bulk cultures of CD8+ CD25hi T cell depleted PBMC; format: cell-based, human
# Method: Wild type (WT) and T cell epitope depleted peptides ([…] and […], respectively) derived from human sTNFR1 sequence were synthesized (Pepscan Systems, Leystad, Netherlands) and tested using the method of example 1 in which CD8^+ CD25^hi T cell depleted PBMC were used to compare peptides derived from sTNFR-1 for the capacity to stimulate T cell responses from twenty healthy donors. Bulk cultures were established by adding 1 ml of 2-4×10^6/ml CD8^+ CD25^hi T cell depleted PBMC in AIM V culture medium to each well of a 24 well plate (Greiner Bio-One, Frickenhausen, Germany). Each peptide was tested separately against each donor by adding 1 ml 10 μM peptide to each bulk culture (final concentration of 5 μM for a 2 ml per bulk culture). For comparison, additional bulk cultures were established for untreated and positive (KLH) controls. Replicate samples (of T blasts) were removed from bulk cultures on days 6-9 and proliferation was assessed in 96 round bottom plates The data were used to assess the magnitude and kinetics of T cell responses to each peptide on days 6, 7, 8 and 9 post stimulation. In addition, the same twenty healthy donors used in the time course proliferation assay were tested for IL-2 production after 8 days culture with the TNFR1 peptides using the IL-2 Elispot assay. Elispot plates were pre-wet with 70% ethanol then coated with IL-2 capture antibody (R&D systems, Minneapolis, USA) overnight at 4° C. The plates were washed twice with PBS (Invitrogen, Paisley, UK) then blocked in 1% BSA/PBS for 2 hours at room temperature. The plates were washed in PBS prior to the addition of CD8^+ CD25^hi T cell depleted PBMC at 4×10^5 cells per well and test samples at a final concentration of 5 μM. After 7 days at 37° C./5% CO2, the plates were developed. After washing with first water then PBS, IL-2 detection antibody (R&D systems, Minneapolis, USA) in PBS/1% BSA was added for 2 hours at 37° C. After further washing with PBS, streptavadin-AP (R&D systems, Minneapolis, USA) was added for 1.5 hours, the plates washed again then BCIP/NBT chromagen (R&D systems, Minneapolis, USA) added for 30 minutes. The plates were washed with water, dried then spot counts analysed using the Immunospot Elispot analyzer, software version 3 (Cleveland, Ohio, USA).
# Wild type (WT) and mutant T cell epitope depleted human sTNFR1 proteins were prepared as human Fc fusion proteins as described in WO/2004/113387 with the epitope-depleted protein having mutations I10Q, T20R, H23P, L56A, L108T, L110H and L149D. Proliferation and IL-2 Elispot assays were performed as in example 2 except that 1 ml of sTNFR1 proteins were added to a final concentration of 10 μg/ml.
# Carbamazepine (Novartis Pharmaceuticals UK) and an N-acetyl iminostilbene (an analogue of carbamazepine, synthesized according to Ying et al Journal of Allergy and Clinical Immunology 2006; 118:233-241) were compared for the ability to stimulate T cell responses in a panel of healthy donors. Both compounds were tested at 25 μg/ml in separate bulk cultures for each donor according to the method of example 2. Briefly, bulk cultures were established using 2-4×10^6 CD8^+ CD25^hi T cell depleted PBMC in each well of a 24 well plate. Replicate samples (of T blasts) are removed from bulk cultures on days 5-8 and proliferation was assessed in 96 well plates. The data were used to assess the magnitude and kinetics of T cell responses to each compound.
# As for example 2, a SI≧2 was used as a threshold for positive responses and data was further analyzed to determine the coefficient of variance (CV), standard deviation (SD) and significance (p<0.05) using parametric and non-parametric statistical analysis. Any given compound was considered to be immunogenic only if the response is statistically significant (p<0.05) with an SI≧2.
# patients = details: known; cited from earlier work
# [2] = system: CD8^+ CD25^hi depleted PBMC; test: T cell proliferation assay (3HTdR) with whole CD8+ depleted vs CD8+ CD25hi depleted PBMC; format: cell-based, human; details: peptides previously scored borderline or negative; SI≧2 threshold
# [3] = system: CD8^+ CD25^hi T cell depleted PBMC; test: IL-2 Elispot assay with CD8+ CD25hi T cell depleted PBMC; format: cell-based, human; details: 5 μM peptide, twenty healthy donors, SI threshold of 2, p<0.05; donors 3, 8 and 11
# Method: Wild type (WT) and T cell epitope depleted peptides ([…] and […], respectively) derived from human sTNFR1 sequence were synthesized (Pepscan Systems, Leystad, Netherlands) and tested using the method of example 1 in which CD8^+ CD25^hi T cell depleted PBMC were used to compare peptides derived from sTNFR-1 for the capacity to stimulate T cell responses from twenty healthy donors. Bulk cultures were established by adding 1 ml of 2-4×10^6/ml CD8^+ CD25^hi T cell depleted PBMC in AIM V culture medium to each well of a 24 well plate (Greiner Bio-One, Frickenhausen, Germany). Each peptide was tested separately against each donor by adding 1 ml 10 μM peptide to each bulk culture (final concentration of 5 μM for a 2 ml per bulk culture). For comparison, additional bulk cultures were established for untreated and positive (KLH) controls. Replicate samples (of T blasts) were removed from bulk cultures on days 6-9 and proliferation was assessed in 96 round bottom plates The data were used to assess the magnitude and kinetics of T cell responses to each peptide on days 6, 7, 8 and 9 post stimulation. […] The plates were washed with water, dried then spot counts analysed using the Immunospot Elispot analyzer, software version 3 (Cleveland, Ohio, USA). […]
# [4] = system: autologous CD8^+ CD25^hi depleted CD4^+ T cells; test: IL-2 Elispot assay, antigen-pulsed monocyte derived dendritic cells plus autologous CD8+ CD25hi depleted CD4+ T cells; format: cell-based, human; details: 44 μg/ml, DC pulsed 6 hours, 6 days, SI ≧2, p<0.05, FIG. 4
# Method: (§1) Monocytes were isolated from PBMC by adherence to tissue culture plastic (>90% CD14^+) and were cultured in 24 well plates in AIM V medium with 5% heat inactivated human AB serum (Autogen Bioclear, Caine, Wiltshire, UK) (growth medium) at an approximate density of 1×10^6 per well (24 well plate). Monocytes were incubated in growth medium containing human IL-4 (Peprotech, Rocky Hill, N.J., USA) and GM-CSF (Peprotech, Rocky Hill, N.J., USA) for 3 days. On day 3, 44 μg/ml of Betaferon (Schering AG, Berlin, Germany) were added in 0.5 ml test buffer plus 3% heat inactivated human AB serum and 25 mM (final concentration) HEPES pH 8. Control wells containing 50 μg/ml KLH or no antigen (untreated cells) were incubated in 1 ml PBS+0.01% Tween 20 plus 3% heat inactivated human AB serum (standard buffer). DC were incubated with antigen for 6 hours after which DCs were washed 6 times to remove exogenous IFN beta. […]
# (§2) On day 4, autologous CD8^+ CD25^hi depleted CD4^+ T cells were isolated by negative selection from PBMC (Dynal Human CD4^+ Negative Isolation Kit, Wirral, UK) and were then added to DCs at 1×10^5 per well in both proliferation and Elispot plates. Elispot plates were incubated for 6 days before developing (as in example 2) and proliferation plates were incubated for 7 days before proliferation was measured by incorporation of 3HTdR (a 6 hour pulse at 1 μCi/well). […]
# [5] = system: autologous CD8^+ CD25^hi depleted CD4^+ T cells; test: Proliferation assay, antigen-pulsed monocyte derived dendritic cells plus autologous CD8+ CD25hi depleted CD4+ T cells; format: cell-based, human; details: 44 μg/ml, DC pulsed 6 hours, 7 days, SI ≧2, p<0.05, FIG. 4
# Method: as §1, §2
# [6] = 5 μM peptide, donors 3, 8 and 11
molecule,measurement,setting,value
CC(=O)N1c2ccccc2C=Cc2ccccc21 [N-acetyl iminostilbene],"donors stimulated, compared","[1]; 25 μg/ml, days 5-8, panel of healthy donors, SI≧2, p<0.05",fewer donors than carbamazepine
"NC(=O)N1c2ccccc2C=Cc2ccccc21 [carbamazepine, Carbamazepine]",additional responses detected on days 6 and 7,[1]; 25 μg/ml,one
same,day on which the majority of T cell responses are induced,"[1]; 25 μg/ml, days 5-8",5 days
same,delayed allergic responses in patients,patients,potent inducer of delayed allergic responses
GDKFVSWYQQGSGQS [compound 2],detection of T cell epitopes after CD25^hi T cell depletion,[2],allowed detection of T cell epitopes
HLRHCLSCSKCRKEM [WT peptide],"peak proliferation responses, time",[1]; [6],7 days after peptide addition
same,score as a T cell epitope if proliferation measured at timepoints 8 or 9 days after peptide addition,[1]; [6],negative
same,"donors giving responses, proliferation assay","[1]; 5 μM peptide, twenty healthy donors, days 6-9, SI threshold of 2, p<0.05, donors 3, 8 and 11",three
same,"donors giving responses, IL-2 Elispot assay",[3],three
PGQTATITCSGHALG [peptide 1],detection of T cell epitopes after CD25^hi T cell depletion,[2],allowed detection of T cell epitopes
"Betaferon: Betaferon (Schering AG), human interferon beta, an immunomodulatory protein (protein, UniProt P01574 22-187, looked up, variant C17S, no N-terminal Met, Betaferon (Schering AG), human interferon beta, an immunomodulatory protein) Interferon beta: MSYNLLGFLQRSSNFQSQKLLWQLNGRLEYCLKDRMNFDIPEEIKQLQQFQKEDAALTIYEMLQNIFAIFRQDSSSTGWNETIVENLLANVYHQINHLKTVLEEKLEKEDFTRGKLMSSLHLKRYYGRILHYLKAKEYSHCAWTIVRVEILRNFYFINRLTGYLRN","donors with significant T cell responses, IL-2 Elispot assay",[4],4 out of 29
same,"donors with significant T cell responses, proliferation assay",[5],4 out of 29
"mutant T cell epitope depleted protein: T cell epitope depleted human sTNFR1 Fc fusion protein with mutations I10Q, T20R, H23P, L56A, L108T, L110H and L149D (protein, UniProt P19438 30-211, looked up, variant I10Q T20R H23P L56A L108T L110H L149D, extracellular domain human Fc fusion) extracellular domain: LVPHLGDREKRDSVCPQGKYQHPQNNSICCRKCPKGTYLYNDCPGPGQDTDCRECESGSFTASENHARHCLSCSKCRKEMGQVEISSCTVDRDTVCGCRKNQYRHYWSENLFQCFNCSTCHNGTVHLSCQEKQNTVCTCHAGFFLRENECVSCSNCKKSDECTKLCLPQIENVKGTEDSGTT","donors with significant T cell responses, proliferation assay","[1]; whole protein 10 μg/ml, timecourse, FIG. 3",not
